Results taken from the supplement of paper PMC10307832.

Key:
Assay in all cases: relative viability (nuclei count vs DMSO), 5 days (fraction); higher = more cells survive
Bosutinib + Lapatinib = compound: COc1cc(Nc2c(C#N)cnc3cc(OCCCN4CCN(C)CC4)c(OC)cc23)c(Cl)cc1Cl [Bosutinib] + CS(=O)(=O)CCNCc1ccc(-c2ccc3ncnc(Nc4ccc(OCc5cccc(F)c5)c(Cl)c4)c3c2)o1 [Lapatinib] (partner 2 µM)
Outline: (§1)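 Lung cancer cell lines were seeded in 1536-well plates and dosed by pin tool the next day, with either a single drug or a fixed anchor-drug dose combined with five library-drug doses (not always all listed) spaced in √10 steps. Five days later, one step fixed the cells and stained their nuclei (final 0.05% Triton X-100, 1% formaldehyde, 1 ug/ml Hoechst), and nuclei were counted on 4× images. Relative viability is the nuclei count in treated wells divided by the count in vehicle wells, and each value is the median of duplicate plates.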

Bosutinib + AZD7762 = compound: COc1cc(Nc2c(C#N)cnc3cc(OCCCN4CCN(C)CC4)c(OC)cc23)c(Cl)cc1Cl [Bosutinib] + NC(=O)Nc1cc(-c2cccc(F)c2)sc1C(=O)N[C@H]1CCCNC1 [AZD7762] (partner 0.2 µM)
Outline: as §1

Bosutinib + Alpelisib = compound: COc1cc(Nc2c(C#N)cnc3cc(OCCCN4CCN(C)CC4)c(OC)cc23)c(Cl)cc1Cl [Bosutinib] + Cc1nc(NC(=O)N2CCC[C@H]2C(N)=O)sc1-c1ccnc(C(C)(C)C(F)(F)F)c1 [Alpelisib] (partner 2 µM)
Outline: as §1

Bosutinib + Dasatinib = compound: COc1cc(Nc2c(C#N)cnc3cc(OCCCN4CCN(C)CC4)c(OC)cc23)c(Cl)cc1Cl [Bosutinib] + Cc1nc(Nc2ncc(C(=O)Nc3c(C)cccc3Cl)s2)cc(N2CCN(CCO)CC2)n1 [Dasatinib] (partner 0.075 µM)
Outline: as §1

Bosutinib + Phenformin = compound: COc1cc(Nc2c(C#N)cnc3cc(OCCCN4CCN(C)CC4)c(OC)cc23)c(Cl)cc1Cl [Bosutinib] + N=C(N)NC(=N)NCCc1ccccc1 [Phenformin] (partner 250 µM)
Outline: as §1

Row | Cell Line | relative viability (Bosutinib + Lapatinib; first compound 0.01 µM) | relative viability (Bosutinib + Lapatinib; first compound 0.03162 µM) | relative viability (Bosutinib + Lapatinib; first compound 0.1 µM) | relative viability (Bosutinib + Lapatinib; first compound 1 µM) | relative viability (Bosutinib + AZD7762; first compound 0.01 µM) | relative viability (Bosutinib + AZD7762; first compound 0.03162 µM) | relative viability (Bosutinib + AZD7762; first compound 0.1 µM) | relative viability (Bosutinib + AZD7762; first compound 1 µM) | relative viability (Bosutinib + Alpelisib; first compound 0.01 µM) | relative viability (Bosutinib + Alpelisib; first compound 0.03162 µM) | relative viability (Bosutinib + Alpelisib; first compound 0.1 µM) | relative viability (Bosutinib + Alpelisib; first compound 1 µM) | relative viability (Bosutinib + Dasatinib; first compound 0.01 µM) | relative viability (Bosutinib + Dasatinib; first compound 0.03162 µM) | relative viability (Bosutinib + Dasatinib; first compound 0.1 µM) | relative viability (Bosutinib + Dasatinib; first compound 1 µM) | relative viability (Bosutinib + Phenformin; first compound 0.01 µM) | relative viability (Bosutinib + Phenformin; first compound 0.03162 µM) | relative viability (Bosutinib + Phenformin; first compound 0.1 µM) | relative viability (Bosutinib + Phenformin; first compound 1 µM)
1 | NCI-H596 | 1.07 | 0.991 | 1.07 | 1.1 | 1.08 | 1.07 | 1.08 | 0.918 | 0.505 | 0.992 | 0.945 | 0.348 | 0.595 | 0.721 | 0.704 | 0.637 | 0.883 | 0.668 | 0.721 | 0.646
2 | NCI-H647 | 1.06 | 1.16 | 1.09 | 0.53 | 0.608 | 0.516 | 0.421 | 0.252 | 1.34 | 1.33 | 1.03 | 0.543 | 0.22 | 0.219 | 0.222 | 0.174 | 0.606 | 0.494 | 0.436 | 0.348
3 | NCI-H650 | 0.889 | 1.07 | 0.948 | 1.15 | 0.908 | 0.992 | 1.04 | 0.981 | 1.15 | 1.12 | 1.21 | 1.18 | 0.47 | 0.502 | 0.488 | 0.552 | 0.447 | 0.45 | 0.472 | 0.482
4 | NCI-H727 | 0.781 | 0.767 | 0.781 | 0.384 | 0.549 | 0.59 | 0.641 | 0.451 | 0.59 | 0.549 | 0.537 | 0.449 | 0.374 | 0.321 | 0.32 | 0.31 | 0.695 | 0.371 | 0.42 | 0.407
5 | NCI-H838 | 1.18 | 0.94 | 0.922 | 0.604 | 0.994 | 0.914 | 0.892 | 0.807 | 0.961 | 0.879 | 0.864 | 0.432 | 0.325 | 0.302 | 0.334 | 0.332 | 0.658 | 0.56 | 0.53 | 0.375
6 | NCI-H1355 | 1.01 | 1.04 | 1.09 | 0.957 | 0.801 | 0.707 | 0.707 | 0.534 | 0.871 | 0.816 | 0.893 | 0.72 | 0.746 | 0.673 | 0.731 | 0.709 | 0.517 | 0.474 | 0.448 | 0.362
7 | NCI-H1395 | 1.26 | 1.06 | 0.914 | 1.08 | 0.405 | 0.425 | 0.387 | 0.38 | 1.23 | 1.09 | 1.18 | 0.913 | 0.414 | 0.429 | 0.405 | 0.436 | 0.38 | 0.44 | 0.461 | 0.451
8 | NCI-H1437 | 0.89 | 0.798 | 0.784 | 0.702 | 1.08 | 1.07 | 1.13 | 0.922 | 0.939 | 0.954 | 1.04 | 0.862 | 0.392 | 0.384 | 0.4 | 0.338 | 0.341 | 0.305 | 0.335 | 0.287
9 | NCI-H1651 | 0.923 | 0.877 | 0.767 | 0.823 | 0.473 | 0.515 | 0.443 | 0.441 | 0.928 | 0.961 | 0.854 | 0.734 | 0.488 | 0.452 | 0.433 | 0.482 | 0.32 | 0.322 | 0.331 | 0.357
10 | NCI-H1666 | 0.705 | 0.592 | 0.656 | 0.757 | 0.719 | 0.836 | 0.832 | 0.788 | 0.982 | 0.947 | 1.07 | 0.865 | 0.75 | 0.834 | 0.814 | 0.808 | 0.536 | 0.545 | 0.552 | 0.597
11 | NCI-H1734 | 1.17 | 1.07 | 0.977 | 1.06 | 0.632 | 0.512 | 0.512 | 0.369 | 0.642 | 0.632 | 0.748 | 0.59 | 0.523 | 0.508 | 0.512 | 0.46 | 0.455 | 0.382 | 0.375 | 0.312
12 | NCI-H1755 | 1.03 | 1.11 | 1.06 | 0.915 | 0.412 | 0.462 | 0.446 | 0.418 | 0.916 | 0.961 | 0.998 | 0.739 | 0.427 | 0.476 | 0.438 | 0.433 | 0.635 | 0.682 | 0.659 | 0.588
13 | NCI-H1792 | 0.892 | 0.866 | 0.918 | 0.866 | 0.641 | 0.543 | 0.778 | 0.273 | 0.774 | 0.677 | 0.757 | 0.505 | 0.805 | 0.796 | 0.875 | 0.781 | 0.256 | 0.254 | 0.327 | 0.251
